Key:
[1] = test system: Staphylococcus aureus ATCC 29213; assay: MBC, agar aliquot subculture method, SA; type: cell-based; conditions: ATCC29213
Method: (§1) For the above-mentioned strains/isolates, the agar aliquot subculture method was used as a test for bactericidal agents. After the MIC value determination, the inoculum was transferred to CaMH (Oxoid) for staphylococci, BHI (Oxoid) for enterococci, and Middlebrook 7H9 (Difco) for mycobacteria medium using a multipoint inoculator. As indicated above, the plates were incubated on a thermostat at 37 °C for the appropriate time for each micro-organism. The lowest concentration of test compound at which ≤5 colonies were obtained was then evaluated as MBC, corresponding to a 99.9% decrease in CFU relative to the original inoculum.

[2] = test system: methicillin-resistant S. aureus 63718; assay: MIC, microtitration broth method, MRSA3; type: cell-based; conditions: Staphylococcus aureus; 24 h at 37 °C
Method: (§2) In vitro antibacterial activity of the synthesized compounds was evaluated against representatives of multidrug-resistant bacteria, three clinical isolates of methicillin-resistant S. aureus: clinical isolates of animal origin, MRSA 63718 (Department of Infectious Diseases and Microbiology, Faculty of Veterinary Medicine, University of Veterinary Sciences Brno, Czech Republic), carrying the mecA gene; and MRSA SA 630 and MRSA SA 3202 [52] (National Institute of Public Health, Prague, Czech Republic), both of human origin. […] Vancomycin- and methicillin-susceptible S. aureus ATCC 29213 and vancomycin-susceptible Enterococcus faecalis ATCC 29212, obtained from the American Type Culture Collection, were used as the reference and quality control strains. Three vanA gene-carrying vancomycin-resistant isolates of E. faecalis (VRE 342B, VRE 368, VRE 725B) were provided by Oravcova et al..
(§3) The minimum inhibitory concentrations (MICs) were evaluated by the microtitration broth method according to the CLSI, with some modifications. The compounds were dissolved in DMSO (Sigma, St. Louis, MO, USA) to obtain a concentration of […] and diluted in a microtitration plate in an appropriate medium, i.e., Cation Adjusted Mueller–Hinton Broth (CaMH, Oxoid, Basingstoke, UK) for staphylococci, and Brain Heart Infusion Broth (BHI, Oxoid) for enterococci, to reach the final concentration of 256–0.125 µg/mL. Microtiter plates were inoculated with test micro-organisms so that the final concentration of bacterial cells was 10^5. […] A drug-free control and a sterility control were included. The plates were incubated for 24 h at 37 °C for staphylococci and enterococci. […] The experiments were repeated three times.

[3] = test system: SNB-19 (human glioblastoma); assay: WST-1 proliferation assay, SNB-19; type: cell-based; conditions: Homo sapiens, SNB-19, 72 h exposure
Method: (§4) Compounds were evaluated for their antiproliferative activity using three cultured cell lines: A549 (human lung carcinoma, ATCC, Manassas, VA, USA), SNB-19 (human glioblastoma, DSMZ, German Collection of Microorganisms and Cell Cultures), T-47D (human breast cancer, ATCC, Manassas, VA, USA), and NHDF (normal human dermal fibroblasts, ATCC, Manassas, VA, USA). The cultured cells were kept at 37 °C and 5% CO2. The cells were seeded (1 × 10^4 cells/well/100 μL DMEM supplemented with 10% FCS, streptomycin, and penicillin) using 96-well plates (corning). Cells were counted in a hemocytometer (Burker chamber) using a phase contrast Olympus IX50 microscope equipped with a Sony SSC-DC58 AP camera and an Olympus DP10 digital camera.
(§5) The antiproliferative effect of the compounds exerted on cancer and normal cells was determined using the Cell Proliferation Reagent WST-1 assay (Roche Molecular Biochemicals, Mannheim, Germany). This assay is based on a colorimetric method using the enzymatic ability of viable cells to cause the bright, red-colored stable tetrazolium monosodium salt [2-(4-iodophenyl)-3-(4-nitrophenyl)-5-(2,4-disulfophenyl)–2H-tetra-zolium] to transform into the dark, red-colored soluble formazan. […] An increase in the amount of formazan dye formed correlated with the number of metabolically active cells in the culture. The formazan dye produced by metabolically active cells was quantified by absorbance readings at appropriate wavelengths. The examined cells were exposed to the tested compounds (1 mM DMSO stock) for 72 h at various concentrations (0.1–100 μM). The control was performed in order to eliminate the DMSO effect at the concentration used. Cell cultures were incubated with WST-1 (10 μL) for 1 h. The absorbance of the samples was measured against a background control at 450 nm using a microplate reader with a reference wavelength at 600 nm. The obtained results are expressed as the means of at least two independent experiments performed in triplicate. The antiproliferative activity of the tested compounds was compared to that of cisplatinum. The values of IC50 (a concentration of a compound that is required for 50% inhibition) were calculated from the dose-response relationship with respect to control. The results were reported as the mean (±std) of three separate experiments.

[4] = test system: methicillin-resistant S. aureus 63718; assay: MBC, agar aliquot subculture method, MRSA3; type: cell-based; conditions: Staphylococcus aureus
Method: as §1

[5] = test system: NHDF (normal human dermal fibroblasts); assay: WST-1 proliferation assay, NHDF; type: cell-based; conditions: Homo sapiens, NHDF, normal cells, 72 h exposure
Method: as §4, §5

[6] = test system: vancomycin-resistant E. faecalis VRE 368; assay: MIC, microtitration broth method, VRE2; type: cell-based; conditions: Enterococcus faecalis, 24 h at 37 °C
Method: as §2, §3

[7] = test system: vancomycin-resistant E. faecalis VRE 342B; assay: MIC, microtitration broth method, VRE1; type: cell-based; conditions: Enterococcus faecalis, 24 h at 37 °C
Method: as §2, §3

[8] = test system: Mycobacterium smegmatis ATCC 700084; assay: MBC, agar aliquot subculture method, MS; type: cell-based; conditions: Mycolicibacterium smegmatis, ATCC700084
Method: as §1

[9] = test system: methicillin-resistant S. aureus SA 3202; assay: MIC, microtitration broth method, MRSA1; type: cell-based; conditions: Staphylococcus aureus; 24 h at 37 °C
Method: as §2, §3

[10] = test system: methicillin-resistant S. aureus SA 3202; assay: MBC, agar aliquot subculture method, MRSA1; type: cell-based; conditions: Staphylococcus aureus
Method: as §1

[11] = test system: Staphylococcus aureus ATCC 29213; assay: MIC, microtitration broth method, SA; type: cell-based; conditions: ATCC29213, 24 h at 37 °C
Method: as §2, §3

[12] = test system: T-47D (human breast cancer); assay: WST-1 proliferation assay, T47D; type: cell-based; conditions: Homo sapiens, T47D, 72 h exposure
Method: as §4, §5

[13] = test system: Enterococcus faecalis ATCC 29213; assay: MIC, microtitration broth method, EF; type: cell-based; conditions: ATCC29213, 24 h at 37 °C
[14] = test system: Mycobacterium smegmatis ATCC 700084; assay: MIC, broth dilution micro-method, MS; type: cell-based; conditions: Mycolicibacterium smegmatis, ATCC700084, 72 h; 3 days at 37 °C
[15] = test system: Mycobacterium marinum CAMP 5644; assay: MBC, agar aliquot subculture method, MM; type: cell-based; conditions: CAMP5644
Method: as §1

[16] = test system: Mycobacterium marinum CAMP 5644; assay: MIC, broth dilution micro-method, MM; type: cell-based; conditions: CAMP5644, 504 h, 21 days at 28 °C
[17] = test system: vancomycin-resistant E. faecalis VRE 725B; assay: MIC, microtitration broth method, VRE3; type: cell-based; conditions: Enterococcus faecalis, 24 h at 37 °C
Method: as §2, §3

[18] = test system: A549 (human lung carcinoma); assay: WST-1 proliferation assay, A549; type: cell-based; conditions: Homo sapiens, A549, 72 h exposure
Method: as §4, §5

[19] = test system: methicillin-resistant S. aureus SA 630; assay: MBC, agar aliquot subculture method, MRSA2; type: cell-based; conditions: Staphylococcus aureus
Method: as §1

[20] = test system: methicillin-resistant S. aureus SA 630; assay: MIC, microtitration broth method, MRSA2; type: cell-based; conditions: Staphylococcus aureus; 24 h at 37 °C
Method: as §2, §3

[21] = test system: Mycobacterium smegmatis ATCC 700084; conditions: 3 days; for Conc.: lowest multiple of MBC with at least 70% inhibition of respiratory activity / Conc.: lowest multiple of MIC with at least 70% inhibition of respiratory activity: MTT; for M. smegmatis Respiration Inhibition: at the concentration (lowest multiple of MIC with at least 70% inhibition)

| MIC [2] [µM] | IC50 [3] [µM] | MIC [6] [µM] | MIC [7] [µM] | MIC [9] [µM] | MIC [11] [µM] | IC50 [12] [µM] | MIC [13] [µM] | MIC [14] [µM] | MIC [16] [µM] | MIC [17] [µM] | IC50 [18] [µM] | MIC [20] [µM] | Compound | MBC [1] [µM] | MBC [4] [µM] | IC50 [5] [µM] | MBC [8] [µM] | MBC [10] [µM] | MBC [15] [µM] | MBC [19] [µM] | also measured |
| --- | --- | --- | --- | --- | --- | --- | --- | --- | --- | --- | --- | --- | --- | --- | --- | --- | --- | --- | --- | --- | --- |
| 65.5 | 8.4 ± 0.7 | 262 | 524 | 262 | 262 | 11.8 ± 0.5 | 262 | 32.7 | 65.5 | 131 | 4.5 ± 0.3 | 262 | C[n+]1cc2c(c3ccccc31)Nc1ccc(OCc3cn(Cc4ccc([N+](=O)[O-])cc4)nn3)cc1S2 [2g, 5-Methyl-9-[1-(4-nitrobenzyl)-1H-1,2,3-triazol-4-yl]methoxy-12H-quino [3,4-b][1,4]benzothiazinium chloride] | 262 | 65.5 | 27.6 ± 0.6 | 65.5 | 262 | 131 |  |  |
| 131 | 9.3 ± 0.5 | > 524 | > 524 | 262 | 131 | 6.3 ± 0.3 | > 524 | 16.3 | 32.7 | > 524 | 14.6 ± 0.6 | 262 | C[n+]1cc2c(c3ccccc31)Nc1cc(OCc3cn(Cc4ccc([N+](=O)[O-])cc4)nn3)ccc1S2 [2h, 5-Methyl-10-[1-(4-nitrobenzyl)-1H-1,2,3-triazol-4-yl]methoxy-12H-quino [3,4-b][1,4]benzothiazinium chloride] | 131 | 131 | > 100 | 16.3 | 262 | 32.7 | 262 | Conc.: lowest multiple of MBC with at least 70% inhibition of respiratory activity [21]: 1× MIC (1× MBC); Conc.: lowest multiple of MIC with at least 70% inhibition of respiratory activity [21]: 1× MIC (1× MBC); viability of M. smegmatis at MIC value ([21]; Mycobacterium smegmatis): less than 70%; M. smegmatis Respiration Inhibition [21]: 81.4% |

Continued, compound first:

| Compound | MIC [2] [µM] | IC50 [3] [µM] | MIC [6] [µM] | MIC [7] [µM] | MIC [9] [µM] | MIC [11] [µM] | IC50 [12] [µM] | MIC [13] [µM] | MIC [14] [µM] | MIC [16] [µM] | MIC [17] [µM] | IC50 [18] [µM] | MIC [20] [µM] | MBC [1] [µM] | MBC [4] [µM] | IC50 [5] [µM] | MBC [8] [µM] | MBC [10] [µM] | MBC [15] [µM] | MBC [19] [µM] | also measured |
| --- | --- | --- | --- | --- | --- | --- | --- | --- | --- | --- | --- | --- | --- | --- | --- | --- | --- | --- | --- | --- | --- |
| C[n+]1cc2c(c3ccccc31)Nc1ccc(OCc3cn(Cc4ccccc4)nn3)cc1S2 [2d, 5-Methyl-9-(1-benzyl-1H-1,2,3-triazol-4-yl)methoxy-12H-quino [3,4-b][1,4]benzothiazinium chloride] | 65.5 | 2.5 ± 0.1 | > 524 | > 524 | 131 | 131 | 8.6 ± 0.7 | > 524 | 32.7 | 32.7 | > 524 | 6.3 ± 0.4 | 131 | 65.5 | 65.5 | > 100 | 32.7 | 131 | 32.7 | 131 |  |
| C[n+]1cc2c(c3ccccc31)Nc1cc(OCc3cn(Cc4ccccc4)nn3)ccc1S2 [2e, 5-Methyl-10-(1-benzyl-1H-1,2,3-triazol-4-yl)methoxy-12H-quino [3,4-b][1,4]benzothiazinium chloride] | 16.3 | 3.4 ± 0.3 | 524 | 524 | 65.5 | 32.8 | 12.5 ± 0.8 | 524 | 32.7 | 32.7 | 524 | 8.4 ± 0.6 | 65.5 | 65.5 | 16.3 | 56.6 ± 4.2 | 32.7 | 65.5 | 32.7 | 65.5 |  |
| C[n+]1cc2c(c3ccccc31)Nc1ccc(OCc3cn(CSc4ccccc4)nn3)cc1S2 [2j, 5-Methyl-9-(1-(phenylthio)methyl-1H-1,2,3-triazol-4-yl)methoxy-12H-quino [3,4-b][1,4]benzothiazinium chloride] | 32.7 | 8.8 ± 0.4 | 524 | 524 | 65.5 | 65.5 | 19.3 ± 1.2 | 524 | 16.3 | 16.3 | 524 | 10.5 ± 0.7 | 65.5 | 65.5 | 32.7 | 28.7 ± 1.2 | 16.3 | 65.5 | 16.3 | 65.5 | Conc.: lowest multiple of MBC with at least 70% inhibition of respiratory activity [21]: 2× MIC (2× MBC); Conc.: lowest multiple of MIC with at least 70% inhibition of respiratory activity [21]: 2× MIC (2× MBC); M. smegmatis Respiration Inhibition [21]: 87.6% |
| C[n+]1cc2c(c3ccccc31)Nc1cc(OCc3cn(CSc4ccccc4)nn3)ccc1S2 [2k, 5-Methyl-10-(1-(phenylthio)methyl-1H-1,2,3-triazol-4-yl)methoxy-12H-quino [3,4-b][1,4] benzothiazinium chloride] | 16.3 | 6.1 ± 0.3 | 524 | > 524 | 65.5 | 65.5 | 10.6 ± 0.9 | 524 | 32.7 | 32.7 | 524 | 16.4 ± 0.9 | 65.5 | 65.5 | 16.3 | > 100 | 32.7 | 65.5 | 32.7 | 65.5 |  |

Reference: PMC10487436, “Towards Anticancer and Antibacterial Agents: Design and Synthesis of 1,2,3-Triazol-quinobenzothiazine Derivatives” (International Journal of Molecular Sciences, 2023)
